For assay [1], the target named is T1, Tyrosine-protein phosphatase non-receptor type 2 (Homo sapiens, UniProt P17706).
T1 sequence (P17706 whole entry): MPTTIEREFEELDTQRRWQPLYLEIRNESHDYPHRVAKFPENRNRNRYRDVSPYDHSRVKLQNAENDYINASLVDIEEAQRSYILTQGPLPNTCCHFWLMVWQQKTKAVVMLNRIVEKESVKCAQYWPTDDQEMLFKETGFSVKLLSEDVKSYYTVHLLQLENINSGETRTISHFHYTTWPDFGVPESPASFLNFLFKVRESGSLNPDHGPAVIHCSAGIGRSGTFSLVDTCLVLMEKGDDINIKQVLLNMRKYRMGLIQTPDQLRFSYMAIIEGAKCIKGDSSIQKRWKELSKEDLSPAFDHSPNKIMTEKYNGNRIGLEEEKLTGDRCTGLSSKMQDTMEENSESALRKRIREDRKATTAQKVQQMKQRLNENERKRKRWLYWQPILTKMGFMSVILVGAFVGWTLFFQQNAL
Briefly: Inhibition of TCPTP (unknown origin) expressed in Escherichia coli BL21(DE3) using pNPP as substrate preincubated for 15 mins followed by substrate addition measured after 10 mins.

For assay [2], the target named is Tyrosine-protein phosphatase non-receptor type 6 (Homo sapiens, UniProt P29350). The experiment in a line: Inhibition of SHP1 (unknown origin) expressed in Escherichia coli BL21(DE3) using pNPP as substrate preincubated for 15 mins followed by substrate addition measured after 10 mins.
Sequence of Tyrosine-protein phosphatase non-receptor type 6 (P29350 whole entry): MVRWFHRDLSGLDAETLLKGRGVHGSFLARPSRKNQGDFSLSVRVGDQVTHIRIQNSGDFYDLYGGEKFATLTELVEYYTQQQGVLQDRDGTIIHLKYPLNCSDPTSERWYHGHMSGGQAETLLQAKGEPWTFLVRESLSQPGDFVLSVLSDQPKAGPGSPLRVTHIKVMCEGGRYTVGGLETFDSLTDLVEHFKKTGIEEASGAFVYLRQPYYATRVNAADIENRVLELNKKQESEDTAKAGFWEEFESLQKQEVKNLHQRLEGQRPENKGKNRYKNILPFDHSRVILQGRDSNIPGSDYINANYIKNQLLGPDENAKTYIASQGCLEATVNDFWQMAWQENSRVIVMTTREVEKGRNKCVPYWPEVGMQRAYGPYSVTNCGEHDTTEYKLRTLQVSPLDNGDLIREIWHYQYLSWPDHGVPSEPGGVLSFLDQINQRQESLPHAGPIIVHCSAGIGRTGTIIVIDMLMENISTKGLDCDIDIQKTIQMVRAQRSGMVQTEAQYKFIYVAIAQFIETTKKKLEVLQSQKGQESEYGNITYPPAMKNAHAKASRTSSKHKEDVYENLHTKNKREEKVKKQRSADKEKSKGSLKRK
The target in assay [3] is T2, Tyrosine-protein phosphatase non-receptor type 1 (Homo sapiens, UniProt P18031).
T2 sequence (P18031 whole entry): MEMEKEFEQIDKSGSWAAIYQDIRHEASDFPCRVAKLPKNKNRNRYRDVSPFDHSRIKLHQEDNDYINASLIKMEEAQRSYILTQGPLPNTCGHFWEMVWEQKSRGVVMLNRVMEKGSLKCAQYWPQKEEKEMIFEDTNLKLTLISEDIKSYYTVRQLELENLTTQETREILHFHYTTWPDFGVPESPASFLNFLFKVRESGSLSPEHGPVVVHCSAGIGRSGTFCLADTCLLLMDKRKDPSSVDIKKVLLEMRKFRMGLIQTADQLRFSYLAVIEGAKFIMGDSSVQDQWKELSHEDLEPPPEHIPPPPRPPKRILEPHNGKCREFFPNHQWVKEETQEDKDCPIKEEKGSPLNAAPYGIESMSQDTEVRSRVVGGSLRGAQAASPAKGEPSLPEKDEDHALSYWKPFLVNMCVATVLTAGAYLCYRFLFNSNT
The experiment in a line: Inhibition of PTP1B (unknown origin) expressed in Escherichia coli BL21(DE3) using pNPP as substrate preincubated for 15 mins followed by substrate addition measured after 10 mins.

As to `C/C(=C\Cc1c(O)cc(O)c2c1C[C@@H](C)OC2=O)CC/C=C(\C)CC[C@H](O)C(C)(C)O`, the concentration for half-maximal inhibition (IC50) in assay [1] was 16.6 µM; in assay [2], 8.8 µM; in assay [3], 13.7 µM.

The record behind these values is ChEMBL document CHEMBL3992550, “An epigenetic modifier induces production of (10'S)-verruculide B, an inhibitor of protein tyrosine phosphatases by Phoma sp. nov. LG0217, a fungal endophyte of Parkinsonia microphylla” (Bioorg Med Chem, 2017).
